Reference: patent publication US20070059272A1 (priority 2005, published 2007)

Columns and labels:
[1] = system: PA-I expression in P. aeruginosa; type: cell-based, Pseudomonas aeruginosa
PA27853 = assay: Biofilm formation assay, PA27853; type: cell-based, Pseudomonas aeruginosa
MDCK cells = type: cell-based
[2] = system: PA-I promoter activity in reporter strain PA27853/PLL-EGFP
[3] = system: PA-I protein expression in PAO1; type: cell-based, Pseudomonas aeruginosa
[4] = system: membrane fractions of P. aeruginosa (PAO1); assay: ELISA binding to membrane fractions and solubilized membrane proteins of P. aeruginosa PAO1; parameters: species or system Pseudomonas aeruginosa
lecA (PA-I) mRNA in PAO1 = assay: Northern blot of PA-I (lecA) mRNA in PAO1; type: cell-based, Pseudomonas aeruginosa; conditions: for PA-I mRNA by Northern blot: PAO1, 200 ng/ml cytokine in cell culture media, 4 hours
[5] = system: PA-I expression in P. aeruginosa; assay: PA-I expression in P. aeruginosa exposed to media containing candidate host agents; type: cell-based, Pseudomonas aeruginosa; conditions: P. aeruginosa in media containing adenosine, TNFα, IL-2, IL-6, IL-8 or IFNγ
Source text: FIG. 10. Exposure of P. aeruginosa to IFNγ induces PA-I expression and the expression of rhlI. For controls (lane 1, 2) bacteria are suspended in media I (Tryptic soy broth) and media II (DMEM +10% FBS ). Lane 3, 4 are MRNA levels from bacteria exposed to IFNγ and TNFα in DMEM.
In addition, strains were exposed to apical media from Caco-2 cells basolaterally exposed to single and combinations of the various epithelial-derived cytokines. […] Media from Caco-2 cells exposed to various combinations of these cytokines had no effect on PA-I expression. […] Using both ELISA, immunofluorescence microscopy, and flow cytometry, the binding characteristics of IFNγ were determined for both whole bacteria and membrane fractions of P. aeruginosa. […] These effects were also observed with strain PAO1. […] It has been difficult to immunoprecipitate a significant quantity of this protein from PA27853, but it has been determined that this protein can also be immunoprecipitated from E. coli (FIG. 12C). Next, IFN-γ binding specificity, to whole bacterial cells, was determined, using reiterative binding studies in the presence of various gram negatie bacterial strains, including P. aeruginosa. […]

OprF = target: T1, OprF (Pseudomonas aeruginosa, UniProt P13794); assay: ELISA binding of IFN-γ to purified OprF; conditions: dose-dependent
T1 sequence (P13794 25-350): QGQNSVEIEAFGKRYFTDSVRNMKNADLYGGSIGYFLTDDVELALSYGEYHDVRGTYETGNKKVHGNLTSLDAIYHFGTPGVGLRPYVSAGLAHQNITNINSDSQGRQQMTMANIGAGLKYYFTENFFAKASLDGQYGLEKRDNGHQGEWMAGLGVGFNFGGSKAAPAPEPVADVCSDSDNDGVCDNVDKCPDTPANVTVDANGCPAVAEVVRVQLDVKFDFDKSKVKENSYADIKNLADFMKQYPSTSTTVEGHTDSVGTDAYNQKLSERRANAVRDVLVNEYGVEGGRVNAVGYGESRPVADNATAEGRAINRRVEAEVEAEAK

[6] = system: pyocyanin (PCN) production in P. aeruginosa PAO1; type: cell-based, Pseudomonas aeruginosa
[7] = system: rhlI transcription in PAO1; assay: Northern blot of rhlI gene expression in PAO1; type: cell-based, Pseudomonas aeruginosa
[8] = system: PCN production in PAO1 mutant strains; type: cell-based, Pseudomonas aeruginosa
C4-HSL synthesis in PAO1 = assay: C4-HSL in PAO1 supernatant by luminescence reporter strain pSB536; type: cell-based, Pseudomonas aeruginosa; conditions: PAO1, 100 ng/ml IFN-γ, bacterial supernatants
[9] = system: whole bacterial cells of PA27853; assay: IFN-γ binding to whole bacterial cells of PA27853; parameters: species or system Pseudomonas aeruginosa
Description: (§1) In addition, strains were exposed to apical media from Caco-2 cells basolaterally exposed to single and combinations of the various epithelial-derived cytokines. […] Media from Caco-2 cells exposed to various combinations of these cytokines had no effect on PA-I expression. […] Using both ELISA, immunofluorescence microscopy, and flow cytometry, the binding characteristics of IFNγ were determined for both whole bacteria and membrane fractions of P. aeruginosa. […] These effects were also observed with strain PAO1. […] It has been difficult to immunoprecipitate a significant quantity of this protein from PA27853, but it has been determined that this protein can also be immunoprecipitated from E. coli (FIG. 12C). Next, IFN-γ binding specificity, to whole bacterial cells, was determined, using reiterative binding studies in the presence of various gram negatie bacterial strains, including P. aeruginosa. […] Finally, in order to determine if PA-I was functionally expressed in PA27853 in the presence IFN-γ, PA27853 was inoculated onto Caco-2 cell monolayers in the presence of IFN-γ and the effect on barrier dysregulating dynamics of PA27853 against this cell line were assessed to determine if IFN-γ shifted the dynamics. […]

[10] = system: whole cells of P. aeruginosa (strain PAO1); assay: IFN-γ binding to whole cells of P. aeruginosa PAO1 (ELISA, immunofluorescence); parameters: species or system Pseudomonas aeruginosa
Description: IFN-γ direct binding to a protein on the surface of P. aeruginosa, in the course of virulence activation, was also investigated. ELISA binding assays were performed by first coating microtiter plates with P. aeruginosa (strain PAO1), then adding recombinant human IFN-γ (rH IFN-γ), followed by biotin-labeled anti-IFN-γ antibody. IFN-γ avidly bound to whole fixed cells of P. aeruginosa in a dose-dependent manner (FIG. 25A). The ELISA data were confirmed by the results of immunofluorescent imaging of bacterial cells exposed to IFN-γ followed by biotin-labeled anti-IFN-γ antibody and Alexa 594-labeled streptavidin. The vast majority of bacterial cells (73%±3.2% vs. 8.5%±2.5%) bound IFN-γ (FIG. 25B, FIG. 27). The binding capacity of the IFN-γ to the P. aeruginosa was affected by bacterial growth phase (FIG. 28A). In order to localize the binding site of IFN-γ to P. aeruginosa (PAO1), equal protein concentrations of membrane and cytosol fractions of P. aeruginosa were prepared and coated onto ELISA microtiter plates. […] To determine if the observed membrane binding by IFN-γ was protein dependent, membrane fractions were treated with proteinase K for 3 hours and IFN-γ binding assessed.

[11] = system: PA-I protein expression in P. aeruginosa mutant strains; assay: PA-I expression in PAO1 mutant strains exposed to IFN-γ; type: cell-based, Pseudomonas aeruginosa
Caco-2 cells = assay: TEER of Caco-2 monolayers inoculated with PA27853 with and without IFN-γ; type: cell-based, human
Description: as §1

P. aeruginosa = type: cell-based, Pseudomonas aeruginosa
[12] = system: PA-I expression in Pseudomonas strain PA27853; assay: Quantitative RT-PCR of PA-I mRNA in PA27853 exposed to morphine; type: cell-based, Pseudomonas aeruginosa
[13] = in vivo, iv; cited from earlier work
P. aeruginosa PA27853 = assay: Mice with slow release morphine pellets drinking PA27853-spiked formula; type: in vivo; conditions: daily oral 1×10^8 cfu/ml PA27853
[14] = system: membrane protein fractions of P. aeruginosa; assay: Morphine binding to P. aeruginosa membrane protein fractions; parameters: species or system Pseudomonas aeruginosa

Compound: C=CCN1C[C@H](C)N([C@H](c2ccc(C(=O)N(CC)CC)cc2)c2cccc(O)c2)C[C@H]1C [BW373U86]
- response to express PA-I [1]: robust response
- biofilm production (PA27853): especially increased
- TEER of MDCK cells following apical exposure to PA27853 plus opioid (MDCK cells): more profound decrease in the TEER
- PA-I expression as judged by fluorescence of the GFP reporter strain [2]: greatest effect on PA-I expression
- PA-I protein [3]: same degree as C4-HSL

Compound: IFN-γ: human recombinant Interferon gamma
- binding to membrane versus cytosol fractions ([4]; equal protein concentrations, ELISA): preferentially bound to membrane fractions
- binding to membranes after proteinase K ([4]; proteinase K for 3 hours): decreased
- binding to solubilized membrane proteins of OprF knockout strains ([4]; versus wild-type PAO1, ELISA): reduced binding
- PA-I mRNA by Northern blot (lecA (PA-I) mRNA in PAO1): Induction of PA-I mRNA was observed
- PA-I mRNA (lecA (PA-I) mRNA in PAO1; early stationary phase of growth): increased
- PA-I expression, in vitro studies [1]: induced PA-I expression
- response to express PA-I [1]: robust response
- PA-I expression, candidate agents alone [5]: induced a direct effect on PA-I expression
- binding to purified OprF (OprF): directly binds
- pyocyanin production [6]: increased pyocyanin production
- rhlI transcription [7]: induced
- PCN production induced by IFN-γ in rhlI and rhlR mutant strains [8]: abolished
- C4-HSL synthesis (C4-HSL synthesis in PAO1): increased
- PA-I expression in reporter strain exposed to cytokines [2]: significant increase in PA-I expression
- binding to whole bacterial cells [9]: high binding affinity
- binding to whole fixed cells by ELISA ([10]; PAO1, recombinant human IFN-γ): avidly bound
- bacterial cells that bound IFN-γ ([10]; immunofluorescent imaging, versus 8.5%±2.5% control): 73%±3.2%
- PA-I expression induced by IFN-γ in rhlI and rhlR mutant strains [11]: abolished
- PA-I protein expression in OprF mutant strains ([11]; 100 ng/ml of IFN-γ): failed to increase the expression of the PA-I protein
- PA-I protein expression in strain 31899 reconstituted with OprF ([11]; plasmid pUCP24/OprF): recovery of their responsiveness
- barrier dysregulating effect of PA27853 (TEER) (Caco-2 cells; Caco-2, five hours of incubation): enhanced the barrier dysregulating effect
- TEER, IFN-γ alone (Caco-2 cells; Caco-2, no bacteria): Neither media nor IFN-γ alone altered TEER
- IFN-γ concentration with the greatest increase in PA-I protein expression [3]: 100 ng/mL
- PA-I protein [3]: increased

Compound: CCCC(=O)N[C@H]1CCOC1=O [C4-HSL, C4-homoserine lactone]
- PA-I mRNA by Northern blot (lecA (PA-I) mRNA in PAO1): Induction of PA-I mRNA was observed
- PA-I expression, in vitro studies [1]: induced PA-I expression
- bacterial growth in TSB media (P. aeruginosa): Neither compound had an effect
- onset of PCN production versus cell density [6]: shift in the production of PCN at lower cell densities
- PCN production in rhlR mutant strain [8]: did not restore PCN production
- PCN production in seven additional mvfR mutants [8]: none of these mutants produced PCN
- PCN production in ΔGacA and ΔMvfR [8]: unable to restore PCN production
- PCN production in ΔGacA/gacA [8]: decreased, albeit minimally
- PCN production in ΔMvfR/mvfR [8]: further increased
- PCN response of MvfR truncation mutant 121-332 [8]: did not respond
- PCN response of MvfR truncation mutants 1-292, 1-291 and 1-283 [8]: did not respond
- PCN response of MvfR truncation mutants 1-299 and 1-293 [8]: enhanced PCN production
- dynamics of PCN production in ΔGacA/gacA [8]: no effect on the dynamics of PCN production
- dynamics of PCN production in ΔMvfR/mvfR [8]: shift in PCN production at lower cell densities
- PA-I protein expression [3]: responds to varying doses

Compound: CN1CC[C@]23c4c5ccc(O)c4O[C@H]2[C@@H](O)C=C[C@H]3[C@H]1C5 [morphine]
- response to express PA-I [1]: robust response
- PA-I expression ([12]; PA27853, physiologic concentrations of morphine (13 μM)): four-fold increase
- increase in PA-I mRNA ([12]; PA27853 exposed to morphine (13 μM), quantitative RT-PCR): 4 fold
- concentration at tissue sites such as the intestinal mucosa [13]: ≤ 100 µM
- mice that developed severe sepsis (P. aeruginosa PA27853): 4/4
- mortality (P. aeruginosa PA27853): significant mortality
- binding to membrane protein fractions [14]: binds to membrane protein fractions
